Reference: the supplement of paper PMC10307832

Legend:
Assay in all cases: relative viability (nuclei count vs DMSO), 5 days (fraction); higher = more cells survive
[1] = compound: C=CCNC1=C2C[C@@H](C)C[C@H](OC)[C@H](O)[C@@H](C)/C=C(\C)[C@H](OC(N)=O)[C@@H](OC)/C=C\C=C(/C)C(=O)NC(=CC1=O)C2=O [17-AAG] + N=C(N)NC(=N)NCCc1ccccc1 [Phenformin] (partner 250 µM)
In short: (§1)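 Medians of duplicate plates are given as relative viability. That measure is the nuclei count in treated wells divided by the count in vehicle wells. Counts were taken on 4× images of lung cancer cell lines in 1536-well plates, 5 days after pin-tool dosing the day after seeding with one drug alone or a fixed anchor-drug dose plus five library-drug doses (not always all listed) in √10 steps.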

[2] = compound: C=CCNC1=C2C[C@@H](C)C[C@H](OC)[C@H](O)[C@@H](C)/C=C(\C)[C@H](OC(N)=O)[C@@H](OC)/C=C\C=C(/C)C(=O)NC(=CC1=O)C2=O [17-AAG] + CC(=O)Nc1cccc(-n2c(=O)n(C3CC3)c(=O)c3c(Nc4ccc(I)cc4F)n(C)c(=O)c(C)c32)c1 [Trametinib] (partner 0.02 µM)
In short: as §1

[3] = compound: C=CCNC1=C2C[C@@H](C)C[C@H](OC)[C@H](O)[C@@H](C)/C=C(\C)[C@H](OC(N)=O)[C@@H](OC)/C=C\C=C(/C)C(=O)NC(=CC1=O)C2=O [17-AAG] + COc1cccc2cc(-c3nc([C@H]4CC[C@H](C(=O)O)CC4)n4ncnc(N)c34)[nH]c12 [OSI-027] (partner 0.5 µM)
In short: as §1

[4] = compound: C=CCNC1=C2C[C@@H](C)C[C@H](OC)[C@H](O)[C@@H](C)/C=C(\C)[C@H](OC(N)=O)[C@@H](OC)/C=C\C=C(/C)C(=O)NC(=CC1=O)C2=O [17-AAG]
In short: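 Only plates meeting two conditions passed: control CV below 25% and at least one doubling. Lung cancer cell lines, kept overnight at 37 °C in 1536-well plates, were pinned with five library-drug doses (not always all listed) √10 apart on vehicle-anchored plates and grown 5 days without medium change. A one-step fix, permeabilisation and Hoechst stain preceded 4× imaging and MetaXpress nuclear counting. Viability equals treated-well nuclei divided by vehicle-well nuclei, as the median over plates.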

Cell Line	relative viability ([1]; first compound 0.00128 µM)	relative viability ([1]; first compound 0.004048 µM)	relative viability ([1]; first compound 0.0128 µM)	relative viability ([1]; first compound 0.04048 µM)	relative viability ([1]; first compound 0.128 µM)	relative viability ([2]; first compound 0.00128 µM)	relative viability ([2]; first compound 0.004048 µM)	relative viability ([2]; first compound 0.0128 µM)	relative viability ([2]; first compound 0.04048 µM)	relative viability ([2]; first compound 0.128 µM)	relative viability ([3]; first compound 0.00128 µM)	relative viability ([3]; first compound 0.004048 µM)	relative viability ([3]; first compound 0.0128 µM)	relative viability ([3]; first compound 0.04048 µM)	relative viability ([3]; first compound 0.128 µM)	relative viability ([4]; 0.00128 µM)	relative viability ([4]; 0.004048 µM)	relative viability ([4]; 0.0128 µM)	relative viability ([4]; 0.04048 µM)	relative viability ([4]; 0.128 µM)
HCC-44	0.22	0.285	0.158	0.0925	0.0873	1.04	1.01	0.988	1.05	0.804	0.54	0.429	0.229	0.141	0.116	1	0.976	0.992	0.278	0.19
HCC-78	0.644	0.818	0.676	0.553	0.351	0.744	0.593	0.71	0.663	0.359	0.375	0.416	0.405	0.39	0.384	0.935	1.02	1.01	0.727	0.425
HCC-366	0.653	0.591	0.159	0.0455	0.0292	0.399	0.389	0.0548	0.0372	0.0284	0.942	0.964	0.117	0.0472	0.037	1.02	1.04	0.49	0.0512	0.0477
HCC-827	0.368	0.447	0.363	–	0.251	0.508	0.508	0.502	–	0.311	0.826	0.785	0.728	–	0.394	1.05	0.997	1.02	–	0.77
HOP-62	0.711	0.541	0.404	0.305	0.118	0.396	0.35	0.355	0.191	0.167	0.879	0.806	0.6	0.44	0.112	1.03	0.881	0.904	0.436	0.126
IA-LM	–	–	–	–	–	–	–	–	–	–	–	–	–	–	–	0.954	0.956	0.874	0.393	0.118
LC-2-ad	0.476	0.523	0.273	0.258	0.227	0.974	0.954	0.875	0.408	0.223	0.699	0.542	0.426	0.301	0.241	0.943	0.974	0.793	0.27	0.19
LCLC-97TM1	0.454	0.402	0.428	0.247	0.143	0.201	0.172	0.163	0.232	0.152	0.506	0.575	0.392	0.241	0.18	0.905	0.974	0.768	0.677	0.123
LCLC-103H	0.351	0.345	0.3	0.346	0.325	0.711	0.692	0.661	0.739	0.669	0.484	0.496	0.478	0.515	0.383	1.02	1	0.957	1.04	1.07
LK-2	0.462	0.478	0.194	0.158	0.135	0.85	0.846	0.789	0.577	0.184	0.26	0.225	0.151	0.138	0.144	1.17	1	0.816	0.519	0.159
LOU-NH91	0.592	0.513	0.383	0.376	0.307	0.795	0.747	0.584	0.434	0.387	0.666	0.618	0.443	0.359	0.316	0.928	0.819	0.571	0.435	0.354
LU99A	0.725	0.734	0.468	0.225	0.116	0.549	0.538	0.508	0.384	0.134	0.333	0.332	0.282	0.217	0.141	0.909	0.867	0.627	0.369	0.169
LXF-289	0.544	0.511	0.189	0.0865	0.0697	0.667	0.661	0.686	0.58	0.145	0.823	0.779	0.53	0.104	0.0657	1.01	1	0.872	0.167	0.121
NCI-H23	0.665	0.769	0.575	0.319	0.155	0.336	0.344	0.246	0.148	0.116	0.623	0.646	0.365	0.179	0.121	0.949	0.851	0.289	0.177	0.147
NCI-H1299	–	–	–	–	–	–	–	–	–	–	–	–	–	–	–	1.01	0.977	0.981	0.931	0.538
NCI-H1563	0.657	0.594	0.52	0.464	0.473	–	–	–	–	–	0.755	0.647	0.564	0.509	0.481	1.03	0.893	0.599	0.629	0.519
NCI-H1648	–	–	–	–	–	–	0.541	0.463	0.368	0.219	0.274	–	0.345	0.261	0.259	0.888	1.08	0.839	0.673	0.59
NCI-H1703	–	–	–	–	–	–	–	–	–	–	–	–	–	–	–	0.911	0.734	0.173	0.191	0.145
